Values joined by “and” are separate entries in the source; they are usually repeats but may differ in a detail not shown here. Identical values can stand only once.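 Compound exposure: 48 hours, 5 concentrations, 96-well plates. GI50: concentration for 50% inhibition of growth. TGI: concentration producing complete growth inhibition.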
Assays:
Test in all cases: DTP human tumour cell line panel, 48 h
[1] = test system: TK-10 renal
[2] = test system: HS 578T breast
[3] = test system: EKVX NSCLC
[4] = test system: CCRF-CEM leukemia
[5] = test system: KM12 colon
[6] = test system: SK-MEL-2 melanoma
[7] = test system: SK-OV-3 ovarian
[8] = test system: LOX IMVI melanoma
[9] = test system: SF-539 CNS
[10] = test system: SNB-75 CNS

| Compound | GI50 [1] [µM] | TGI [1] | GI50 [2] [µM] | TGI [2] [µM] | GI50 [3] [µM] | TGI [3] | GI50 [4] [µM] | TGI [4] [µM] | GI50 [5] [µM] | TGI [5] | GI50 [6] [µM] | TGI [6] | GI50 [7] [µM] | TGI [7] [µM] | GI50 [8] [µM] | TGI [8] | GI50 [9] [µM] | TGI [9] | GI50 [10] [µM] | TGI [10] |
| --- | --- | --- | --- | --- | --- | --- | --- | --- | --- | --- | --- | --- | --- | --- | --- | --- | --- | --- | --- | --- |
| Oc1ccc(Nc2c3ccccc3nc3occ(Cl)c23)cc1 | 6.46 | 50.8 µM | 5.62 | > 100 | 14.8 | > 100 µM | 1.42 | 6.12 | 2.78 | 17 µM | 2.62 | 7.26 µM | 4.77 | > 100 | 6.68 | > 100 µM | – | – | – | – |
| C/C(=N\NC(=S)N1CCCCCC1)c1ccccn1 | – | 8.56 µM and 7.56 µM | – | 3.85 | 0.053 | 1.84 µM and 3.34 µM | – | – | 0.0688 | 0.517 µM and 5.16 µM | 0.0694 | 0.569 µM and 1.83 µM | – | 2.28 | – | 4.37 µM and 1.37 µM | 0.143 | 1.74 µM and 2.26 µM | 0.277 | 1.18 µM and 2.54 µM |
| C=C1C(=O)OC2CC(C)C(C(O)CC(C)O)=CCC12 (configuration not stated) | – | 23.3 µM | – | 62 | – | 28.6 µM | – | 14.3 | – | 46.4 µM | – | 38.5 µM | – | > 100 | – | 25.7 µM | – | 31.3 µM | – | 47.2 µM |
| COc1ccc(Cn2c(N)c(S(=O)(=O)c3ccc(Cl)cc3)c3nc(C#N)c(C#N)nc32)cc1 | 11.6 | 41.5 µM | 14.6 | > 50 | > 50 | > 50 µM | – | – | 28 | > 50 µM | 29.8 | > 50 µM | 10.8 | 49.4 | 8.27 | 38.3 µM | > 50 | > 50 µM | > 50 | > 50 µM |
| COC(=O)C1=CN(CC2=CC(=O)C(C)=CC2=O)C=C(C(=O)OC)C1c1cccc(OC)c1 | 12.2 | 25.9 µM | 8.66 | 44.9 | 12.2 | 27.2 µM | 2.38 | > 21.9 | 8.34 | 26.9 µM | 24.3 | > 100 µM | 20.3 | 43.1 | 17.6 | 42.7 µM | 8.25 | 23.3 µM | 31 | > 100 µM |
| CN(C)c1ncnc2c1ncn2CCn1cnc2c(N(C)C)ncnc21 | – | > 100 µM | – | > 100 | – | > 100 µM | – | > 100 | – | > 100 µM | – | > 100 µM | – | > 100 | – | > 100 µM | – | > 100 µM | – | > 100 µM |
| COc1ccc(-c2nnc(N3CCN(C(=O)CN4CCN(c5ccccc5)CC4)CC3)nc2-c2ccc(OC)cc2)cc1 | 3.52 | 47.6 µM | 5.15 | 71.5 | 4.91 | > 100 µM | 5.19 | > 100 | 3.67 | > 100 µM | 9.13 | 55.8 µM | 14.5 | 70.7 | 5.78 | > 100 µM | 6.03 | 35.3 µM | 14.4 | 48.7 µM |
| O=C(/C=C/C=C/c1ccccc1)c1ccccc1 | – | 42.3 µM | – | 55.4 | – | 28.6 µM | – | – | – | 27.3 µM | – | 45.5 µM | – | 70.4 | – | 29.3 µM | – | 32.8 µM | – | 41.9 µM |

— PubChem BioAssay (NCI)
